Legend:
[1] = aqueous solubility across the physiologic pH range and in simulated physiological fluids; type: physicochemical; conditions: across the physiologic pH range as well as in simulated physiological fluids
pKa of GLP1RA = type: physicochemical; conditions: weak acid

- aqueous solubility [1]: very low
- pKa (pKa of GLP1RA): 5.1
SMILES: Cc1cc(-n2nc3c(c2-n2ccn(-c4ccc5c(cnn5C)c4F)c2=O)[C@H](C)N(C(=O)c2cc4cc([C@H]5CCOC(C)(C)C5)ccc4n2[C@@]2(c4noc(=O)[nH]4)C[C@@H]2C)CC3)cc(C)c1F [GLP1RA, 3-[(1S,2S)-1-[5-[(4S)-2,2-dimethyloxan-4-yl]-2-[(4S)-2-(4-fluoro-3,5-dimethylphenyl)-3-[3-(4-fluoro-1-methylindazol-5-yl)-2-oxoimidazol-1-yl]-4-methyl-6,7-dihydro-4H-pyrazolo[4,3-c]pyridine-5-carbonyl]indol-1-yl]-2-methylcyclopropyl]-4H-1,2,4-oxadiazol-5-one]

Reference: patent US20250302809A1, “GLP1 PHARMACEUTICAL COMPOSITIONS” (Eli Lilly and Company, priority 2022, published 2025)
